From patent publication US8865901B2, “Gain-of-function Bcl-2 inhibitors” (priority 2009, dated 2014)
Where two headings read alike, the source gives them in different places.

Tests used:
[1] = tested on: TAMH cells transfected with Neo vector (Neo); assay: Cytotoxicity / apoptosis induction in TAMH cells transfected with Neo vector; format: cell-based
Procedure: (§1) To examine the sensitivity of cells over-expressing Bcl-xL to various mitochondrial inhibitors and apoptosis inducers, cell lines over-expressing Bcl-xL were prepared and tested according to Hockenberry et al. U.S. Pat. No. 7,241,804, hereby incorporated by reference in its entirety. Competitive binding of compounds with fluorescent antimycin A3, and competitive binding of compounds with BH3 peptide and Bcl-2. Competitive binding of compounds with BH-3 peptide were also measured using Bcl-xL as previously described. Id.
(§2) Cell lines were grown in RPMI 1640 medium (Gibco, Grand Island, N.Y.) supplemented with 5% fetal bovine serum (Hyclone, Logan, Utah). Also shown is the ratio of TAMH cells expressing Bcl-xL to those expressing A142L (WT:142L). The assay measures the potency of various compounds with respect to inducing apoptosis in these cells.
(§3) The compounds described in Example 2 were tested for their ability to inhibit Bcl-2 gain-of-function in TAMH cells, TAMH cells overexpressing […] (TAMH-Bcl-xL), TAMH cells transfected with Neo vector (Neo), TAMH cells over expressing a variant of Bcl-xL (A142L) using the methods of Example 1. 3-6.
(§4) The effects of the compounds described in Example 8 on TAMH cells, TAMH cells overexpressing Bcl-xL (TAMH-Bcl-xL), TAMH cells transfected with Neo vector (Neo), TAMH cells over expressing a variant of Bcl-xL (A142L) is shown in Table 8
(§5) The effects of the compounds described in Example 10 on TAMH cells, TAMH cells overexpressing Bcl-xL (TAMH-Bcl-xL), TAMH cells transfected with Neo vector (Neo), TAMH cells over expressing a variant of Bcl-xL (A142L) is shown in the following Table 10

[2] = tested on: TAMH cells overexpressing Bcl-xL (TAMH-Bcl-xL, Tabx2s); assay: Cytotoxicity / apoptosis induction in TAMH cells overexpressing Bcl-xL; format: cell-based
Procedure: as §1, §2, §3, §4, §5

[3] = Log P
[4] = Table 3, TAMH Neo cells, read-out: Neo EC50
[5] = Table 3, TAMH cells overexpressing Bcl-xL (Tabx2s), read-out: 2S EC50
[6] = Table 5, TAMH cells overexpressing Bcl-xL (Tabx2s), read-out: 2S EC50
[7] = Table 10, read-out: IC50 TAMH Neo
[8] = Table 10, read-out: IC50 TAMH Bcl-XL
[9] = Table 5, TAMH Neo cells, read-out: Neo EC50
[10] = Table 15, read-out: IC50 TAMH Neo
[11] = Table 15, read-out: IC50 TAMH Bcl-XL

## Oc1c(Br)cc(Cl)cc1/C=N/Nc1ccc(C(F)(F)F)cn1 [Compound 0275]
[1]; [4]
  EC50: 9.9 µM
[2]; [5]
  EC50: 1.4 µM
[3]; Table 3
  Log P: 4.980

## O=C(/N=C/c1cc(Br)cc(Br)c1O)c1ccccc1 [Compound 0347]
[1]; Table 6, TAMH Neo cells, read-out: Neo EC50
  EC50: 5.8 µM
[2]; Table 6, TAMH cells overexpressing Bcl-xL (Tabx2s), read-out: 2S EC50
  EC50: 0.5 µM
[3]; Table 6
  Log P: 4.250

## Cc1ccc(OC(=O)C(C)C)c(Cc2cc(C)cc(Cc3cc(C)ccc3OC(=O)C(C)C)c2O)c1 [Compound 0127]
[2]; [6]
  EC50: 3.2 µM
[3]; Table 5
  Log P: 8.31

## Cc1cc(Cl)cc(Cc2cc(Cl)cc(C)c2O)c1O [Compound 77122]
[1]; [7]
  IC50: 6.6 µM
[2]; Table 10
  Fold Select. (Neo/Bcl-XL): 3.3
[2]; [8]
  IC50: 2 µM

## CC(=O)Oc1ccc(C)cc1Cc1cc(C)cc(Cc2cc(C)ccc2OC(C)=O)c1OC(C)=O [Compound 0098]
[1]; [9]
  EC50: 10.4 µM
[2]; [6]
  EC50: 1.6 µM
[3]; Table 5
  Log P: 7.45

## [O-][S+](c1cc(Cl)cc(Cl)c1O)c1cc(Cl)cc(Cl)c1O [Compound 523910]
[1]; [7]
  IC50: 14.2 µM
[2]; Table 10
  Fold Select. (Neo/Bcl-XL): 6.4
[2]; [8]
  IC50: 2.2 µM

## CN(Cc1cc(Br)cc(Br)c1O)Cc1c(O)ccc2ccccc12 [Compound 88852]
[1]; Table 18, read-out: Neo
  EC50: 21.5 µM
[2]; Table 18
  Neo/Bcl-XL: 5.8
[2]; Table 18, read-out: Bcl-XL
  EC50: 3.7 µM

## CCc1cc(Cc2cc(CC)cc(C(C)(C)C)c2O)c(O)c(C(C)(C)C)c1 [Compound 7782]
[1]; [7]
  IC50: 3.5 µM
[2]; Table 10
  Fold Select. (Neo/Bcl-XL): 1.7
[2]; [8]
  IC50: 2.1 µM

## CC(C)(C)c1ccc(Cc2ccc(Oc3ccccc3)cc2O)cc1 [Compound 0155]
[1]; [9]
  EC50: 12 µM
[2]; [6]
  EC50: 1.9 µM
[3]; Table 5
  Log P: 7.24

## COc1ccc(Cl)cc1Cc1cc(Cl)cc(Cc2cc(Cl)ccc2O)c1OC [Compound 0088]
[1]; [9]
  EC50: 6.1 µM
[2]; [6]
  EC50: 0.6 µM
[3]; Table 5
  Log P: 7.4

## Cc1c(Cl)cc(C(C)(C)C)c(O)c1Cc1c(C)c(Cl)cc(C(C)(C)C)c1O [Compound 5857]
[1]; [7]
  IC50: 12.5 µM
[2]; Table 10
  Fold Select. (Neo/Bcl-XL): 2.8
[2]; [8]
  IC50: 4.5 µM

## O=C(c1cc(Br)ccc1O)c1cc(Br)ccc1O [Compound 4631]
[1]; [7]
  IC50: 14 µM
[2]; Table 10
  Fold Select. (Neo/Bcl-XL): 1.7
[2]; [8]
  IC50: 8.5 µM

## O=[N+]([O-])c1ccc(S(=O)(=O)Cc2ccccc2)c([N+](=O)[O-])c1 [Compound 122657]
[1]; [10]
  IC50: 13.5 µM
[2]; Table 15
  Fold Selectivity (Neo/Bcl-XL): 3.9
[2]; [11]
  IC50: 3.5 µM

## Oc1ccc(Br)cc1Sc1cc(Br)ccc1O [Compound 1049]
[1]; [7]
  IC50: 4.2 µM
[2]; Table 10
  Fold Select. (Neo/Bcl-XL): 2.2
[2]; [8]
  IC50: 1.9 µM

## CN(Cc1cc(C(C)(C)C)cc(Br)c1O)Cc1cc(C(C)(C)C)cc(Br)c1O [Compound 48881]
[1]; Table 19, read-out: Neo
  EC50: 28 µM
[2]; Table 19
  Neo/Bcl-XL: 4.6
[2]; Table 19, read-out: Bcl-XL
  EC50: 6.1 µM

## Oc1ccc(Cl)cc1/C=N/Nc1ccccn1 [Compound 0229]
[1]; [4]
  EC50: ≥ 50 µM
[2]; [5]
  EC50: 2.4 µM
[3]; Table 3
  Log P: 2.570

## COc1ccc(C(=O)N/N=C2\C(=O)c3c(C)cc(C)cc3CC2(C)C)cc1 [Compound 310343]
[1]; Mus musculus, TAMH, Table 16, read-out: TAMH Neo IC50
  IC50: > 100 µM
[2]; Mus musculus, TAMH, Table 16, read-out: TAMH Bcl-XL IC50
  IC50: 25 µM
[2]; Table 16
  Fold Selectivity (Neo/Bcl-XL): >4

## COc1c(Cl)cc(/C=N/Nc2ccccn2)c(O)c1Br [Compound 0355]
[1]; [4]
  EC50: 33 µM
[2]; [5]
  EC50: 1.6 µM
[3]; Table 3
  Log P: 3.820

## CC(C)c1ccc(S(=O)(=O)c2ccc([N+](=O)[O-])cc2[N+](=O)[O-])cc1 [Compound 85653]
[1]; [10]
  IC50: 12 µM
[2]; Table 15
  Fold Selectivity (Neo/Bcl-XL): 2.7
[2]; [11]
  IC50: 4.5 µM

## CC(C)(C)c1cc(C(C)(C)c2ccccc2)cc(Cc2cc(C(C)(C)c3ccccc3)cc(C(C)(C)C)c2O)c1O [Compound 288938]
[1]; [7]
  IC50: 93.1 µM
[2]; Table 10
  Fold Select. (Neo/Bcl-XL): 3.3
[2]; [8]
  IC50: 28 µM

## Oc1c(Br)cc(Br)cc1/C=N/Nc1ccccn1 [Compound 0245]
[1]; [4]
  EC50: ≥ 50 µM
[2]; [5]
  EC50: 3.3 µM
[3]; Table 3
  Log P: 3.540
